The structures appear in SMILES notation.

Results on seven molecules are retold here after patent US4882432A, “Polycyclic-carbamic acid piperazinoalkyl esters and amides” (American Home Products Corporation, priority 1989, dated 1989).

Assay [1] has as its target T1, 5-HT1A serotonin receptor subtype (Rattus norvegicus, UniProt P19327).
T1 construct: from tissue
T1 sequence (P19327 1-422): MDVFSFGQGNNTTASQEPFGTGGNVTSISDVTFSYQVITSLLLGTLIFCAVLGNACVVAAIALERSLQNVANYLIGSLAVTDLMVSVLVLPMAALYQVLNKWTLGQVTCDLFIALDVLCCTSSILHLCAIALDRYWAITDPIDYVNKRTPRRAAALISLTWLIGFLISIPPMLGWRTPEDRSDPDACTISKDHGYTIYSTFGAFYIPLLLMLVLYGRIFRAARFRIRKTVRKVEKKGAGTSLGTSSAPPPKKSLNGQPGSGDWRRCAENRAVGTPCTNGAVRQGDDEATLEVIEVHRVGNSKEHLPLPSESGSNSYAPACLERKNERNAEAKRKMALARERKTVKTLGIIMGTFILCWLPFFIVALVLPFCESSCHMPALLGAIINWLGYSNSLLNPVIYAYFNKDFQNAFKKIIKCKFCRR
The assay can be described thus: displacement of ^3 H-8-OH DPAT from the 5-HT1A serotonin receptor subtype (Hall et al.). Type of assay: binding. The conditions noted are these: for inhibition at 1 µM: 1 μM test compound, read-out: % Inhibition at 1 μM (Affinity for 5-HT1A Receptor Sites); for Ki: calculated from IC50 values, read-out: Ki (Affinity for 5-HT1A Receptor Sites).
Excerpt: The serotoninergic properties of the compounds of this invention were established by the procedure of Hall et al., J. Neurochem.

In assay [2] the target is T2, limbic D2 (dopamine) receptor (Rattus norvegicus, UniProt P61169).
T2 construct: from tissue
T2 sequence (P61169 whole entry): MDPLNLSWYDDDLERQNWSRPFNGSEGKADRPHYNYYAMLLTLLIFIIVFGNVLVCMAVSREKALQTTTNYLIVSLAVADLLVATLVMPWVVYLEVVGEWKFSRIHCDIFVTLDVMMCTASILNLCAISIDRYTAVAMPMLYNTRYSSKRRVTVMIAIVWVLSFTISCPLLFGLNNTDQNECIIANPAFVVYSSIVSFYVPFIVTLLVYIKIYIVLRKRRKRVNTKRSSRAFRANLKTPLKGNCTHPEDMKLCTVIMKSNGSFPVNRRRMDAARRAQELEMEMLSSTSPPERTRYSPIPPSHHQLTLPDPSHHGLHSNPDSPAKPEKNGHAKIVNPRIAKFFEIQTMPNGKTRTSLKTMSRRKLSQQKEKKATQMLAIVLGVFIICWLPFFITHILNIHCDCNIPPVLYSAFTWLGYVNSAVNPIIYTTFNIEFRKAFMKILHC
As to the kind of experiment: inhibition of ^3 H-spiroperidol binding to limbic brain tissue (D2 receptor affinity). The conditions noted are these: 1 μM test compound, read-out: % Inhibition at 1 μM (Affinity for D2 Receptor Sites). The procedure:
The compounds of this invention are antidepressant, anxiolytic agents useful in the treatment of depression and/or anxiety as a singular, primary mental problem as well as secondary, attending problems such as sexual dysfunction. […] The D2 receptor affinity of the compounds of this invention was determined by a modification of the test procedure of Fields et al., Brain Res. 136, 578 (1977) and Yamamura et al., eds., Neurotransmitter Receptor Binding, Raven Press, N.Y. (1978) as discussed in U.S. Pat. No. 4,636,563. The percentage reduction of ^3 H-spiroperidol binding at 1 μM concentration of test compound is reported, infra.

The conditions of assay [3]: literature; cited from earlier work.

For orientation: inhibition means the share of the control response that was lost under treatment. Turning to `COc1ccccc1N1CCN(CCNC(=O)NC23CC4CC(CC(C4)C2)C3)CC1` [Example 2], in assay [1], the inhibition at 1 µM came out at 100%.
Take `COc1ccccc1N1CCN(CCCNC(=O)NC23CC4CC(CC(C4)C2)C3)CC1` [Example 5, N-[3-[4-(2-methoxyphenyl)-1-piperazinyl]propyl]-N'-tricyclo[3.3.1.1(3,7)]dec-1-ylurea]: the inhibition at 1 µM in assay [1] amounted to 100%; in assay [2], 66%.
Turning to `O=C(NCCN1CCN(c2cccc(Cl)c2)CC1)NC12CC3CC(CC(C3)C1)C2` [Example 3, N-[2-[4-(3-chlorophenyl)-1-piperazinyl]ethyl]-N'-tricyclo[3.3.1.1(3,7)]dec-1-ylurea], in assay [1] (100 nM test compound, read-out: % Inhibition at 100 nM (Affinity for 5-HT1A Receptor Sites)), the inhibition at 0.1 µM is 54%. For the same molecule, the inhibition at 1 µM in assay [2] amounted to 56%.
In general, Ki refers to a measure of affinity in units of concentration, obtained from inhibition or displacement. Consider `O=C(NCCN1CCN(c2ncccn2)CC1)NC12CC3CC(CC(C3)C1)C2` [Example 1, N-[2-[4-(2-pyrimidyl)-1-piperazinyl]ethyl]-N'-tricyclo[3.3.1.1(3,7)]dec-1-ylurea], for which the inhibition at 1 µM was found to be 91% in assay [1] and 15% in assay [2]. In addition, the Ki in assay [1] was 52 nM.
As to `Cc1nc2sccn2c(=O)c1CCN1CCC(=C(c2ccc(F)cc2)c2ccc(F)cc2)CC1` [Ritanserin], the “clinical efficacy as anxiolytic-antidepressant agents (in words)” value in assay [3] is reported as “demonstrate clinical efficacy as anxiolytic-antidepressant agents”.
Regarding `O=C(NCCCN1CCN(c2cccc(Cl)c2)CC1)NC12CC3CC(CC(C3)C1)C2` [Example 6, N-[3-[4-(3-chlorophenyl)-1-piperazinyl]propyl]-N'-tricyclo[3.3.1.1(3,7)]dec-1-ylurea], in assay [1], the inhibition at 1 µM was found to be 95% and the Ki is 45 nM. For the same molecule, in assay [2], the inhibition at 1 µM is 38%.
In the same order, the values of `O=C(NCCCN1CCN(c2ncccn2)CC1)NC12CC3CC(CC(C3)C1)C2` [Example 4, N-[3[4-(2-pyrimidyl)-1-piperazinyl]propyl]-N'-tricyclo[3.3.1.1(3,7)]dec-1-ylurea] are 100%, 7 nM and 10%.
